In patent publication US9969776B2, “Drug conjugates for delivering compounds to senescent cells” (Unity Biotechnology, Inc., priority 2007, dated 2018):
Entries after “also recorded” stand apart in the source; their conditions may differ. Like-named read-outs stand apart in the source and are kept apart here. Where no end group is shown, it is not given here.

Assays:
[1] = tested on: non-senescent fibroblasts; assay: Cytotoxicity, LDH release (CytoTox-ONE); assay type: cell-based; conditions: 2 hours at 37° C.
[2] = tested on: senescent fibroblasts; assay: Cytotoxicity, LDH release (CytoTox-ONE); assay type: cell-based; conditions: 2 hours at 37° C.
[3] = tested on: non-senescent fibroblasts; assay: Cell Proliferation Assay WST-1; assay type: cell-based
Description: (§1) Cell proliferation was assayed using the Cell Proliferation Reagent WST-1 (Roche, Mannheim, Germany) by following the manufacturer's instructions.

[4] = tested on: immortalized prostate epithelial cells; assay: Cell Proliferation Assay WST-1; assay type: cell-based
Description: as §1

[5] = tested on: senescent fibroblasts; assay: Cell Proliferation Assay WST-1; assay type: cell-based
Description: as §1

[6] = tested on: prostate epithelial cells (RWPE-1); assay: Cytotoxicity, LDH release (CytoTox-ONE); assay type: cell-based; conditions: immortalized prostate epithelial cells RWPE-1, 2 hours at 37° C.
[7] = cited from earlier work
[8] = tested on: prostate epithelium; assay: Cell binding assay with radio-labeled peptide
Description: (§2) A senescent cell binding agent (SEQ ID NO:1) was conjugated at its C terminus to the linker sequence GGGC (SEQ ID NO:9) by synthesizing both as a single construct (i.e., SenC; SEQ ID NO:5). The purpose of attaching GGGC was that it can be used to chelate reduced 99m-Tc for radio-labeling. A 2 μL aliquot of conjugated senescent cell binding agent (3 M) was mixed with 40 μL of 0.25 M ammonium acetate, 15 μL of tartrate buffer pH 8.7, 4 μL of stannous chloride in 100 mM of sodium tartrate, and 30 μL of 99m-Tc pertechnetate. The mixture was heated for 25 minutes at 95° C. Quality control was performed with Sep-Pak and was always above 90% purity. A small aliquot was also injected on a Waters 600 HPLC to check the radiological profile. Fractions were collected and read on a gamma counter (Perkin-Elmer Wallac Wizard 1470).
(§3) Binding of radio-labeled SenC (SEQ ID NO:5) to senescent and non-senescent cells was tested by competition with unlabeled SenC. Peptide solutions were prepared to contain 0 or 20 μM of unlabeled SenC, 15 nM radio-labeled SenC, and 0.2% BSA. Chemically-induced senescent fibroblasts, their non-senescent counterparts, and prostate epithelial cells were prepared as above, harvested, and centrifuged. The cell pellets were resuspended in fresh media without FBS, and cells were counted. Peptide solution containing 0 or 20 μM unlabeled SenC and constant concentrations of SenC and 10^5 senescent cells were combined in a final volume of 200 μL of PBS in Eppendorf tubes and incubated for 4 hours. Cells were pelleted by centrifuging at 2500 rpm for 2 minutes and washed twice with PBS and 0.2% BSA. Pellets were suspended in 5 μL PBS and transferred to 12×75 mm tubes for counting radioactivity using a gamma counter (Perkin-Elmer Wallac Wizard 1470).

[9] = tested on: normal fibroblasts; assay: Cell binding assay with radio-labeled peptide
Description: as §2, §3

[10] = tested on: senescent cells; assay: Cell binding assay with radio-labeled peptide
Description: as §2, §3

[11] = 1×iv, mice; cited from earlier work
[12] = absence of unlabeled peptide, 15 nM radio-labeled SenC, 4 hours
[13] = presence of 20 μM unlabeled SenC

In the case of “GVYHFAPLTPTPGGGSKFAKFAKKFAKFAK (GVYHFAPLTPTPGGSKFAKFAKKFAKFAK) [SenL]”, the “cell death (percentage of cells killed)” value [1] was “some cytotoxicity is observed”, the “cell death (percentage of cells killed)” value [2] was “dose-dependent cell death at a significantly higher rate than either non-senescent fibroblasts or prostate epithelial cells” and the “cell proliferation (WST-1, metabolic activity)” value (“cell proliferation” below) [3] was “no change in cell proliferation; also recorded: no significant effect on metabolic activity”. For the same compound, the “cell proliferation” value [4] was “no change in cell proliferation; also recorded: no significant effect on metabolic activity”, the “cell proliferation” value [5] was “no change in cell proliferation; also recorded: no significant effect on metabolic activity” and the “cell death (percentage of cells killed)” value [6] was “no cell death at all; also recorded: No cell death was observed”.
For `CC[C@]1(O)C[C@@H]2CN(CCc3c([nH]c4ccccc34)[C@@](C(=O)OC)(c3cc4c(cc3OC)N(C)[C@H]3[C@@](O)(C(=O)OC)[C@H](OC(C)=O)[C@]5(CC)C=CCN6CC[C@]43[C@@H]65)C2)C1` [vinblastine], the MTD ([7]; escalating) is listed as 3.3-11.1 mg/m^2 and the MTD ([7]; rarely to) is listed as 18.5 mg/m^2.
With “radio-labeled SenC: SenC (SEQ ID NO:5) radio-labeled with 99m-Tc chelated by GGGC (GVYHFAPLTPTPGGGC; also: 99mTc chelated by GGGC)” the “specificity of binding (absence vs. presence of unlabeled SenC)” value [8] was “nonspecific”, the “bound peptide, average” value [8, 12] was 0.06 % of added dose and the “bound peptide, average” value [8, 13] was 0.06 % of added dose. For the same compound, the “specificity of binding (absence vs. presence of unlabeled SenC)” value [9] was “nonspecific”, the “bound peptide, average” value [9, 12] was 0.08 % of added dose and the “bound peptide, average” value [9, 13] was 0.09 % of added dose. For the same compound, the “specificity of binding (absence vs. presence of unlabeled SenC)” value [10] was “specific binding”, the “bound peptide, average” value [10, 12] was 0.32 % of added dose and the “bound peptide, average” value [10, 13] was 0.25 % of added dose.
In the case of `CC[C@@]1(O)C(=O)OCc2c1cc1n(c2=O)Cc2cc3c(CN(C)C)c(O)ccc3nc2-1` [topotecan], the LD1Omice [11] is given as 75 mg/m^2.
